Among the data in patent publication US9334244B2, “Compounds useful as inhibitors of ATR kinase” (Vertex Pharmaceuticals Incorporated, priority 2010, dated 2016) are Ki values, retold here.

The structures appear in SMILES notation.

T1 sequence (Q13535 whole entry): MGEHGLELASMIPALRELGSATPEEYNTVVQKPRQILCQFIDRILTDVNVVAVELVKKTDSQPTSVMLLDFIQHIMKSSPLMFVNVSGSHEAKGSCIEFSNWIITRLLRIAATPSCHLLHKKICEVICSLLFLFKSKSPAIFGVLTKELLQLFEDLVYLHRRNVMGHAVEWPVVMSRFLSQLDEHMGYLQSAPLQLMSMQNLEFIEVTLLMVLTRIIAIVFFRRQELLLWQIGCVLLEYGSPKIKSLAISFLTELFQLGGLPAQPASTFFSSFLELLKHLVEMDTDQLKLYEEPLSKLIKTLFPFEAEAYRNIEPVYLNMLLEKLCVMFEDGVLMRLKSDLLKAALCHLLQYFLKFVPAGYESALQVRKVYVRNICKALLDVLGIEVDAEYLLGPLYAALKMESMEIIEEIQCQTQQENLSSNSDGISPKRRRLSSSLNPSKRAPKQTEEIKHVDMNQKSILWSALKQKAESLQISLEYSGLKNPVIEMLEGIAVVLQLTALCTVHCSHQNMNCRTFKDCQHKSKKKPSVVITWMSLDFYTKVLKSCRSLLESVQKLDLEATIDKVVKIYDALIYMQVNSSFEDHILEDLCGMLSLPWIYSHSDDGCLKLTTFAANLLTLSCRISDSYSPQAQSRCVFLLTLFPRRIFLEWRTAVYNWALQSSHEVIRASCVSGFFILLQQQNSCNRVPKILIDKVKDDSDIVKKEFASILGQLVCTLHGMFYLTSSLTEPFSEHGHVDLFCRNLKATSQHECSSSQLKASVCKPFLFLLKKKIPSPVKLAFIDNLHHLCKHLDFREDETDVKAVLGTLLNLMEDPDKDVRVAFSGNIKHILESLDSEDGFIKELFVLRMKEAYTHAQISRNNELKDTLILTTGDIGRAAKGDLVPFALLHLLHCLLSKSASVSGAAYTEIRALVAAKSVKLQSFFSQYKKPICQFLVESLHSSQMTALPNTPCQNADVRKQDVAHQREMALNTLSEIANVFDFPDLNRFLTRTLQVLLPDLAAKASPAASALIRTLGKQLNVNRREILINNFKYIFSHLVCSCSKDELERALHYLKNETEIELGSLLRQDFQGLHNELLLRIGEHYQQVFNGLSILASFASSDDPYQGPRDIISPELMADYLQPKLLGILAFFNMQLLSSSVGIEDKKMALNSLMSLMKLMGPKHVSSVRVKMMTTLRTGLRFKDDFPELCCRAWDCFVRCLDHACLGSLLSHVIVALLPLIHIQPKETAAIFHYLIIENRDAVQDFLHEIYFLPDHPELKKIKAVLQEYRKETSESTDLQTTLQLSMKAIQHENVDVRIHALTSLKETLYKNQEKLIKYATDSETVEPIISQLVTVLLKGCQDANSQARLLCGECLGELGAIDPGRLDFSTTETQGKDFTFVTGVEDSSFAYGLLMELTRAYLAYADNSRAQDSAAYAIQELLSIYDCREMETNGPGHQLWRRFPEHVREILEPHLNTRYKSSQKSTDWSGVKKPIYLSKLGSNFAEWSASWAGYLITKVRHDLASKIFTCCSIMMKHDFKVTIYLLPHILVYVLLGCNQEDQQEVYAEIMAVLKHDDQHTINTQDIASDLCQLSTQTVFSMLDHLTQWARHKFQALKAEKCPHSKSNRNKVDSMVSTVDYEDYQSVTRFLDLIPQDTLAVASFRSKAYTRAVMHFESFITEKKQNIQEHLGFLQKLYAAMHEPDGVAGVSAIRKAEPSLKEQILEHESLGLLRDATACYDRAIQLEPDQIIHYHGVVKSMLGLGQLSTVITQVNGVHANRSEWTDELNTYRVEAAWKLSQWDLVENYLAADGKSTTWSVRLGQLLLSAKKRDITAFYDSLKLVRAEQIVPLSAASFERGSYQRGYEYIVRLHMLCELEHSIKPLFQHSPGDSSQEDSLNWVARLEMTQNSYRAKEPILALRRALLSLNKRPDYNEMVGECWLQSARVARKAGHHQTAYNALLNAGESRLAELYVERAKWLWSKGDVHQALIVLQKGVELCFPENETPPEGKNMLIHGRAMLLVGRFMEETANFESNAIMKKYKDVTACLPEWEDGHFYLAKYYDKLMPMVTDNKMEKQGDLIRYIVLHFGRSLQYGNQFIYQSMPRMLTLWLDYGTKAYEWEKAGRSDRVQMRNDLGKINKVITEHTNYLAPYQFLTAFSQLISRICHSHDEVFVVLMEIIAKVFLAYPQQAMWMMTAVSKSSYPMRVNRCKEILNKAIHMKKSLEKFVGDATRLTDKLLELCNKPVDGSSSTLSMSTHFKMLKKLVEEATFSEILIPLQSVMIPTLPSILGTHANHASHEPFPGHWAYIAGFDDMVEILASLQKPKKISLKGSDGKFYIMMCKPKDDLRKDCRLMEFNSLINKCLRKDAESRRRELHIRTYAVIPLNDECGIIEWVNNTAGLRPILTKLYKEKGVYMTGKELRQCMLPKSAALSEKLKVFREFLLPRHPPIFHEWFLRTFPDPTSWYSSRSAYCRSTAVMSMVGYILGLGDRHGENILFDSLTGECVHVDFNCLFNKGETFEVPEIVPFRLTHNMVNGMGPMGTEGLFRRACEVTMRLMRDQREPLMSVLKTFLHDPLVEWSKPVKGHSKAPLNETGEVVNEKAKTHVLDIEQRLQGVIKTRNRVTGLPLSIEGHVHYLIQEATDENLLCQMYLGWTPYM

This experiment concerns the target T1, full-length ATR (Homo sapiens, UniProt Q13535).
T1 construct: Assays were carried out at 25° C. in the presence of 5 nM full-length ATR
In words: ATR Inhibition Assay (radioactive-phosphate incorporation). It is filed as biochemical. As to conditions: 5 nM full-length ATR, 10 μM [γ-33P]ATP, 800 μM target peptide, 25° C.; read-out: Ki value (Ki(app)) for inhibition of ATR. The method, then:
Compounds were screened for their ability to inhibit ATR kinase using a radioactive-phosphate incorporation assay. Assays were carried out in a mixture of 50 mM Tris/HCl (pH 7.5), 10 mM MgCl2 and 1 mM DTT. Final substrate concentrations were 10 μM [γ-^33P]ATP (3mCi 33P ATP/mmol ATP, Perkin Elmer) and 800 μM target peptide ([…]).
Assays were carried out at 25° C. in the presence of 5 nM full-length ATR. An assay stock buffer solution was prepared containing all of the reagents listed above, with the exception of ATP and the test compound of interest. 13.5 μL of the stock solution was placed in a 96 well plate followed by addition of 2 μL of DMSO stock containing serial dilutions of the test compound (typically starting from a final concentration of 15 μM with 3-fold serial dilutions) in duplicate (final DMSO concentration 7%). The plate was pre-incubated for 10 minutes at 25° C. and the reaction initiated by addition of 15 μl [γ-^33P]ATP (final concentration 10 μM).
The reaction was stopped after […] by the addition of 30 μL 0.1M phosphoric acid containing 2 mM ATP. A multiscreen phosphocellulose filter 96-well plate (Millipore, Cat no. MAPHN0B50) was pretreated with 100 μL 0.2M phosphoric acid prior to the addition of 45 μL of the stopped assay mixture. The plate was washed with 5×200 μL 0.2M phosphoric acid. After drying, 100 μL Optiphase ‘SuperMix’ liquid scintillation cocktail (Perkin Elmer) was added to the well prior to scintillation counting (1450 Microbeta Liquid Scintillation Counter, Wallac).
After removing mean background values for all of the data points, Ki(app) data were calculated from non-linear regression analysis of the initial rate data using the Prism software package (GraphPad Prism version 3.0cx for Macintosh, GraphPad Software, San Diego Calif., USA).
Regarding `CNCc1ccc(-c2cc(-c3cncc(-c4ccc(S(=O)(=O)C(C)C)cc4)n3)on2)cc1` [Compound IV-3, 1-(4-(5-(6-(4-(isopropylsulfonyl)phenyl)pyrazin-2-yl)isoxazol-3-yl)phenyl)-N-methylmethanamine], the Ki is below 100 nM. In the case of `CC(C)S(=O)(=O)c1ccc(-c2cncc(-c3cc(-c4ccccc4)no3)n2)cc1` [Compound IV-2, 5-(6-(4-(isopropylsulfonyl)phenyl)pyrazin-2-yl)-3-phenylisoxazole] it was 100 to 250 nM.

With `Cc1ncc(-c2ccc(S(C)(=O)=O)cc2)nc1C(=O)Nc1ccccc1` [Compound IV-1, 3-Methyl-6-(4-(methylsulfonyl)phenyl)-N-phenylpyrazine-2-carboxamide], the Ki was in the range of 250 to 500 nM.
